Measured values: patent publication US9557338B2 (SIGNAL PHARMACEUTICALS, LLC, priority 2012, dated 2017)
Read-outs that look alike come from different tables or passages of the source.

What was measured:
Type in all cases: cell-based
Phospho-p70S6K (T389) = test: MSD assay, phospho-p70S6K (T389) in cell lysates
Protocol: Determination of Phospho-p70S6K (T389) in Cell Lysates.
MSD® biomarker detection assays provide a rapid and convenient method for measuring the total and phosphorylated levels of protein targets within a single small-volume sample. In the assay, an antibody for a specific protein target is coated on one electrode (or spot) per well. The samples (cell lysates) are added to the well with a solution containing the detection antibody labeled with an electrochemiluminescent (ECL) compound, MSD SULFOTAG™ label, over the course of one or more incubation periods. The total protein present in the sample binds to the capture antibodies immobilized on the working electrode surface; recruitment of the labeled detection antibody by bound phospho-p70S6K completes the sandwich. MSD Read Buffer that provides the appropriate chemical environment for ECL is added and the plate is read using an MSD SECTOR™ Imager. Inside the SECTOR Imager, a voltage is applied to the plate electrodes which cause the labels bound to the electrode surface to emit light. The instrument measures intensity of the emitted light to afford a quantitative measure of the amount of phosphorylated protein present in the sample.
Cells were plated in 96-well flat bottom plates at the required density determined for each cell line and the cells were allowed to equilibrate at 37° C., 5% CO2 overnight. The following day, the cells were treated with Compound 1 over a range of concentrations for one hour in 5% CO2 at 37° C. After the incubation period, the culture medium was removed carefully with an aspirator. The plate was placed on ice and 50 μL of 1× Tris Lysis Buffer were added to each well. The plate was placed on a shaker at 4° C. for one hour to lyse the cells. At that point, the plate was either frozen at −80° C. for later analysis or immediately assayed for phosphoproteins as described below. To monitor interassay variability, Compound 1 was compared among all plates as a reference standard.
The assay plate was incubated with 150 μL of MSD Blocking Buffer for one hour with shaking at room temperature. The plates were washed 3 times with Tris Wash Buffer. Then 35 μL of cell lysate was added to the wells and incubated for one hour with shaking at room temperature. The solution was removed from the wells and the plate was washed 3 times with wash buffer. Twenty-five microliters of the appropriate antibody solution was then incubated for one hour with shaking at room temperature. The solution was removed from the wells and the plate was washed 3 times with wash buffer. Then 150 μL of 1×MSD Read Buffer T was added to each well. The plate was read on the SECTOR Imager plate reader.

GSK-3β = test: MSD assay, GSK-3β phosphorylation in cell lysates
Phospho-GSK3β(S9) = test: Luminex multiplex assay, Phospho-GSK3β(S9); details: PC3 cell line; read-out: Luminex GSK-3β
How it was run: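 Cells (PC3; HCT-116, MDA-MB-231 and HT29 with 500 ng/mL recombinant human IGF-I for the final 10 min) treated with compound or rapamycin over a concentration range for 1 h at 37° C, 5% CO2. Lysates read by bead-based Luminex sandwich immunoassay, 3 h at room temperature, RPE anti-rabbit detection, quantified against phosphoprotein standard curves.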

[1] = PC3 cell line, read-out: MSD p70S6K
[2] = PC3 cell line, read-out: MSD GSK-3β

Row | SMILES | IC50 (Phospho-p70S6K (T389); [1]) [nM] | IC50 (GSK-3β; [2]) [nM] | further results
1 | Cc1nc(-c2nnc[nH]2)ccc1-c1cnc2c(n1)N(C(C)C)C(=O)CN2 [A-13, 1-isopropyl-7-(2-methyl-6-(4H-1,2,4-triazol-3-yl)pyridin-3-yl)-3,4-dihydropyrazino[2,3-b]pyrazin-2(1H)-one] | – | – | IC50 (Phospho-p70S6K (T389); Homo sapiens, HCT-116, HCT116 cell line, IGF, read-out: MSD p70S6K (IGF)): 941 nM; IC50 (Phospho-p70S6K (T389); Homo sapiens, U-87 MG, U87MG cell line, read-out: MSD p70S6K): 351 nM; IC50 (GSK-3β; Homo sapiens, HCT-116, HCT116 cell line, IGF, read-out: MSD GSK-3β (IGF)): > 2000 nM; IC50 (GSK-3β; Homo sapiens, U-87 MG, U87MG cell line, read-out: MSD GSK-3β): > 2000 nM
2 | COC1CCC(N2C(=O)CNc3ncc(-c4cnc(-c5ncn[nH]5)cc4C)nc32)CC1 (centres unmarked) [C-93] | 1 | > 1.5 | IC50 (Phospho-GSK3β(S9)): 2 nM
3 | CO[C@H]1CC[C@@H](N2CC(=O)Nc3ncc(-c4ccc(-c5nc[nH]n5)c(F)c4C)nc32)CC1 [C-110] | 22 | > 150 | –
4 | Cc1c(-c2cnc3c(n2)N(C2CCOCC2)CC(=O)N3)ccc(-c2nc[nH]n2)c1F [C-111] | 58 | > 150 | –
5 | COCCN1C(=O)CNc2ncc(-c3ccc(-c4cc[nH]n4)cc3)nc21 [C-112] | 36 | > 500 | –
6 | O=C1CNc2ncc(-c3ccc(O)nc3)nc2N1CCC1CCOCC1 [C-113] | > 500 | > 500 | –
7 | CNc1ccc(-c2cnc3c(n2)N(CCC2CCOCC2)C(=O)CN3)cn1 [C-114] | 184 | 2030 | –
8 | Nc1cc(-c2cnc3c(n2)N(CCC2CCOCC2)C(=O)CN3)ccn1 [C-115] | > 500 | > 500 | –
9 | Nc1ncc(-c2cnc3c(n2)N(CCC2CCOCC2)C(=O)CN3)cn1 [C-116] | 303 | 3990 | –
10 | O=C1CNc2ncc(-c3cccc4[nH]ncc34)nc2N1CCC1CCOCC1 [C-117] | > 5000 | > 5000 | –
11 | Cc1cc(C(N)=O)ncc1-c1cnc2c(n1)N(C(C)C)C(=O)CN2 [C-118] | 170 | 3930 | –
12 | CCN1CC(=O)Nc2ncc(-c3cc(F)c(-c4nc[nH]n4)cc3C)nc21 [C-119] | 10 | 323 | –
13 | Cc1cc(-c2nc[nH]n2)c(F)cc1-c1cnc2c(n1)N(C(C)C)CC(=O)N2 [C-120] | 12 | 99 | –
14 | Cc1cc(-c2nc[nH]n2)c(F)cc1-c1cnc2c(n1)N(C1CCOCC1)CC(=O)N2 [C-122] | 6 | 323 | –
15 | Cc1cc(-c2nc[nH]n2)c(F)cc1-c1cnc2c(n1)N(C1CCC(O)CC1)CC(=O)N2 (centres unmarked) [C-123] | 13 | > 500 | –
16 | CCN1CC(=O)Nc2ncc(-c3ccc(-c4nc[nH]n4)nc3)nc21 [C-124] | 289 | > 500 | –
17 | O=C1CN(C2CCOCC2)c2nc(-c3ccc(-c4ncn[nH]4)nc3)cnc2N1 [C-125] | 73 | > 500 | –
18 | O=C1CNc2ncc(-c3ccnc(O)c3)nc2N1CCC1CCOCC1 [C-126] | 480 | 1140 | –
19 | CCN1C(=O)CNc2ncc(-c3cc(F)c(-c4nc[nH]n4)cc3C)nc21 [C-127] | 4 | 33 | –
20 | Cc1cc(-c2nc[nH]n2)c(F)cc1-c1cnc2c(n1)N(C(C)C)C(=O)CN2 [C-128] | 21 | 1 | –
21 | COCCN1C(=O)CNc2ncc(-c3cc(F)c(-c4nc[nH]n4)cc3C)nc21 [C-129] | 1 | > 500 | –
22 | Cc1cc(-c2nc[nH]n2)c(F)cc1-c1cnc2c(n1)N([C@H]1CC[C@H](O)CC1)C(=O)CN2 [C-130] | < 0.835 | 12 | –
23 | COCCN1CC(=O)Nc2ncc(-c3cc(F)c(-c4nc[nH]n4)cc3C)nc21 [C-131] | 118 | > 500 | –
24 | COC1CCC(N2CC(=O)Nc3ncc(-c4cc(F)c(-c5ncn[nH]5)cc4C)nc32)CC1 (centres unmarked) [C-132] | 222 | > 500 | –
25 | Cc1cc(-c2nc[nH]n2)c(F)cc1-c1cnc2c(n1)N(C1CCC(O)CC1)CC(=O)N2 (centres unmarked) [C-133] | 61 | > 500 | –
26 | CC(C)N1CC(=O)Nc2ncc(-c3ccc(-c4nc[nH]n4)nc3)nc21 [C-134] | 172 | > 500 | –
27 | COCCN1CC(=O)Nc2ncc(-c3ccc(-c4nc[nH]n4)nc3)nc21 [C-135] | > 1500 | > 1500 | –
28 | COC1CCC(N2CC(=O)Nc3ncc(-c4ccc(-c5ncn[nH]5)nc4)nc32)CC1 (centres unmarked) [C-136] | 82 | > 500 | –

Row | SMILES | IC50 (Phospho-p70S6K (T389); [1]) [nM] | IC50 (GSK-3β; [2]) [nM] | further results
29 | COC1CCC(N2C(=O)CNc3ncc(-c4cc(F)c(-c5ncn[nH]5)cc4C)nc32)CC1 (centres unmarked) [C-137] | 52 | 394 | –
30 | CC(C)N1C(=O)CNc2ncc(-c3ccc(-c4ncn[nH]4)nc3)nc21 [C-138] | 40 | 181 | –
31 | COC1CCC(N2C(=O)CNc3ncc(-c4ccc(-c5ncn[nH]5)nc4)nc32)CC1 (centres unmarked) [C-139] | 40 | > 500 | –
32 | O=C1CNc2ncc(-c3ccc(-c4nc[nH]n4)nc3)nc2N1C1CCC(O)CC1 (centres unmarked) [C-140] | 70 | > 500 | –
33 | Cc1cc(-c2nc[nH]n2)c(F)cc1-c1cnc2c(n1)N(CC1CCC(O)CC1)C(=O)CN2 (centres unmarked) [C-142] | 18 | > 500 | –
34 | Cc1cc(-c2nc[nH]n2)c(F)cc1-c1cnc2c(n1)N(CC1CCC(O)CC1)CC(=O)N2 (centres unmarked) [C-143] | 4 | > 500 | –
35 | O=C1CN([C@H]2CC[C@H](O)CC2)c2nc(-c3ccc(-c4nc[nH]n4)nc3)cnc2N1 [C-144] | > 500 | > 500 | –
36 | O=C1CNc2ncc(-c3cccc4[nH]ccc34)nc2N1CCC1CCOCC1 [C-145] | > 500 | > 500 | –
37 | COC1CCC(N2CC(=O)Nc3ncc(-c4ccc(-c5ncn[nH]5)nc4)nc32)CC1 (centres unmarked) [C-146] | 12 | > 500 | –
38 | Cc1cc(-c2nc[nH]n2)c(F)cc1-c1cnc2c(n1)N(CC1CCC(O)CC1)C(=O)CN2 (centres unmarked) [C-147] | < 1.5 | > 500 | –
39 | COC1CCC(N2CC(=O)Nc3ncc(-c4cc(F)c(-c5nc[nH]n5)cc4C)nc32)CC1 (centres unmarked) [C-148] | < 1.5 | 65 | –
40 | O=C1CN(CC2CCC(O)CC2)c2nc(-c3ccc(-c4nc[nH]n4)nc3)cnc2N1 (centres unmarked) [C-149] | 173 | > 5000 | –
41 | CCN1C(=O)CNc2ncc(-c3ccc(-c4ncn[nH]4)nc3)nc21 [C-150] | 38 | > 500 | –
42 | COCCN1C(=O)CNc2ncc(-c3ccc(-c4ncn[nH]4)nc3)nc21 [C-151] | 120 | > 500 | –
43 | O=C1CNc2ncc(-c3ccc(-c4nc[nH]n4)nc3)nc2N1C1CCOCC1 [C-152] | 20 | > 500 | –
44 | O=C1CN(C2CCC(O)CC2)c2nc(-c3ccc(-c4nc[nH]n4)nc3)cnc2N1 (centres unmarked) [C-153] | > 500 | > 500 | –
45 | O=C1CN(CC2CCC(O)CC2)c2nc(-c3ccc(-c4nc[nH]n4)nc3)cnc2N1 (centres unmarked) [C-154] | 1520 | > 5000 | –
46 | Cc1cc(-c2nc[nH]n2)c(F)cc1-c1cnc2c(n1)N([C@H]1CC[C@@H](O)CC1)C(=O)CN2 [C-155] | 40 | 240 | –
47 | COC1CCC(CN2C(=O)CNc3ncc(-c4ccc(-c5nc[nH]n5)nc4)nc32)CC1 (centres unmarked) [C-159] | 6 | > 500 | –
48 | CO[C@H]1CC[C@@H](CN2CC(=O)Nc3ncc(-c4cc(F)c(-c5nc[nH]n5)cc4C)nc32)CC1 [C-160] | < 1.5 | > 500 | –
49 | O=C1CNc2ncc(-c3ccnc4[nH]ccc34)nc2N1CCC1CCOCC1 [C-161] | 385 | 2790 | –
50 | O=C1CNc2ncc(-c3cccc4[nH]cnc34)nc2N1CCC1CCOCC1 [C-162] | 4750 | > 5000 | –
51 | COC1CCC(CN2CC(=O)Nc3ncc(-c4cc(F)c(-c5nc[nH]n5)cc4C)nc32)CC1 (centres unmarked) [C-163] | > 500 | > 500 | –
52 | Cc1cc(-c2nc[nH]n2)ncc1-c1cnc2c(n1)N(CC1CCOCC1)CC(=O)N2 [C-164] | 1 | 275 | –
53 | CCN1C(=O)CNc2ncc(-c3ccc4[nH]ccc4n3)nc21 [C-166] | > 500 | > 500 | –
54 | COC1CCC(CN2C(=O)CNc3ncc(-c4cc(F)c(-c5nc[nH]n5)cc4C)nc32)CC1 (centres unmarked) [C-167] | < 1.5 | < 1.5 | –
55 | O=C1CN(CCC2CCOCC2)c2nc(-c3c[nH]c4ncccc34)cnc2N1 [C-169] | 419 | 2820 | –
